According to patent publication US9402849B2, “Composition for moderating alcohol metabolism and for reducing the risk of alcohol induced diseases” (Tima Foundation, priority 2005, dated 2016):
Where “and” joins values, the source holds several entries; their conditions need not be identical. Identical values can stand only once.

Tests used:
[1] = test system: YAC-1 cells; assay: NK cytotoxic activity of nude mouse splenocytes, short-term 51Cr-release assay; assay type: in vivo; conditions: for NK activity, % Control: EtOH versus control nude mice
Protocol: A short-term ^51Cr-release assay was used to determine the natural killer (NK) cytotoxic activity. Mice were divided in following 3 groups; control, ethanol administration, and Supplement and ethanol administration. Twenty, four hours after the ethanol administration, splenocytes of the nude mouse were separated as single cell suspension. Target YAC-1 cells (1×10^7) were labeled by incubation with 200 μCi of ^51Cr for 2 hours at 37C. After being washed and then incubated for 2 hours at 37° C., the cells were supplemented in RPMI1640 medium. 20 μl of the labeled target cells and 100 μl of effector cells were mixed into a 96-well microliter plate (Sumitomo Bakelite Co., Ltd., Tokyo, Japan) at various effector/target cell ratios. After 4 hours of incubation, the plates were centrifuged and the radioactivity of the supernatant was measured by a gamma-counter. The percent of cytotoxicity was calculated as (experimental group release−spontaneous release/total release−spontaneous release). Statistical analysis of the results was conducted by t^2 test, and […] was defined as the level of significance.

[2] = test system: RPMI4788 cells; assay: Alcohol enhanced pulmonary metastasis of RPMI4788 cells in nude mice (nodules on lung surface); assay type: in vivo
Protocol: Ingredients of Supplement except Coenzyme Q10 were purchased from Sigma Aldrich Japan (Tokyo, Japan). Ten gram of dextrose, 1.0 gram of Vitamin C, 1.5 gram of L-glutamine, 500 mg of cysteine, 40 mg of riboflavin, 100 mg of succinic acid, 100 mg of fumaric acid, and 10 mg of niacin were dissolved in 100 ml of distilled water (Supplement Solution). One hundred mg of Coenzyme Q10 (Jarrow Formulas, Los Angels, Calif., USA) was dissolved in 14 ml of sesame oil.
Male, 6-week-old nude mice of BALB/cA-jcl-nu/nu class were purchased (Clea Japan Inc., Shizuoka, Japan) and allowed to acclimate for one week prior to the study. During the experiment the mice were maintained at a temperature of 23° C., 50% humidity and a specific-pathogen-free (SPF) condition.
RPM14788 cells derived from human colorectal cancer generate pulmonary metastasis in nude mouse (Moore G E & Koike A (1964), Cancer January, 17: 11-20; Kondo H. et al. (1987), Jpn J Cancer Res (Gann) 78, 12: 1400-1408). The cell line was subcultured in tissue culture flasks with culture medium of RPMI1640 solution (Nikken Biomedical Laboratory, Kyoto, Japan) supplemented with 10% Fetal Bovine Serum. (FBS) (Hycione Laboratories Inc., Logan, Utah) at 37° C., in an atmosphere of 100% humidity, 5% CO2 and 95% air. Following isolation of the cultured cells by 0.02% EDTA, a cell suspension was prepared using PBS of 0.01M; trypan blue staining confirmed cell viability over 98%.
To produce lung metastases, nude mice were injected cell suspension of 5×10^4/0.1 ml into tail vein. Twenty-eight days after the injection, all metastatic nodules on the lung surface were counted. The lung was fixed in 10% neutral formaldehyde and embedded in paraffin. Sections were stained with Hematoxylin-Eosin and examined histologically.
For testing the supplement, 320 μl of supplement solution and 50 μl of Co-Q10 dissolved sesame oil per mouse were administrated to the stomach by oral metal tube. For assaying the effects of Supplement+EtOH, one hour after the supplement administration, 7.0 ml/kg of ethanol were injected into the peritoneal cavity. Then 1 hour after the ethanol injection, 5×10^4/100 μl of RPM14788 cells were injected into the tail vein. The nude mice were sacrificed 28 days after the cell injection and the metastatic nodules on the lung surface were counted.

CCO [ETOH, ethanol]
NK activity ([1]; EtOH): 11.20%
NK activity, % Control ([1]; listed as EtOH): 45.5%
NK activity, % Control ([1]; listed as Ethanol): 45.5%
Average cont (51Cr release) ([1]; EtOH, splenocytes 24 h after ethanol): 568.6
Number of Metastatic nodules on the lung surface, Average ([2]; ETOH + 4788, 16 mice): 42.25
Number of Metastatic nodules on the lung surface, Total ([2]; ETOH + 4788, 16 mice): 676
Number of Metastatic nodules on the lung surface ([2]; ETOH + 4788, single mouse, ethanol 7.0 ml/kg i.p. 1 h before cells, 28 days): 75 and 58 and 69 and 62 and 18 and 19 (2×) and 21 (2×) and 24 and 20 (2×) and 48 and 70 and 64 and 68
Total metastatic nodules minus 4788 ([2]; ETOH + 4788, total minus control total): 251
Enhancement of metastatic potential of 4788 cell line ([2]; Ethanol + 4788 versus control): approximately 60%
